Measurements as given in ChEMBL document CHEMBL3727361, “Nitrogen bicyclic compounds as inhibitors for Scyl1 and Grk5” (2014).

system: Beta-TC6; experiment: Increase in insulin release in mouse BetaTC6 cells assessed as relative insulin release activity at 10 uM incubated for 2 to 4 hrs by FRET based HTRF assay relative to sunitinib; format: functional

Compound | Activity
CS(=O)(=O)Nc1cccc(-c2cn3c(-c4cccs4)cnc3cn2)c1 | 20%
c1ccc(Cn2cc(-c3cn4c(-c5ccc6c(c5)OCO6)cnc4cn3)cn2)cc1 | 50%
Cc1ccccc1-c1nnc2ccc(-c3ccc(C(N)=O)cc3)cn12 | 20%
CN1CCN(C(=O)c2ccc(-c3cnc4cnc(/C=C/c5ccccc5)cn34)cc2)CC1 | 10%
CN(C)c1ccc(-c2cnc3cnc(-c4ccccc4Cl)cn23)cc1 | 20%
CS(=O)(=O)Nc1ccc(-c2cnc3cccnn23)cc1 | 10%
COc1cc(OC)cc(-c2cn3c(-c4ccc5c(c4)OCO5)cnc3cn2)c1 | 50%
CC(=O)c1cccc(-c2cnc3cnc(-c4cccs4)cn23)c1 | 50%
CS(=O)(=O)Nc1cccc(-c2cn3c(-c4ccc5ncccc5c4)cnc3cn2)c1 | 20%
FC(F)(F)Oc1ccc(-c2cn3c(-c4cccs4)cnc3cn2)cc1 | 20%
CN(C)c1ccc(-c2ccc3ncc(-c4ccc(CO)cc4)n3n2)cc1 | 50%
Fc1cccc(-c2cnc3cnc(-c4ccc(Cl)cc4)cn23)c1 | 20%
Clc1cccc(-c2cn3c(-c4cccs4)cnc3cn2)c1 | 20%
Clc1ccccc1-c1ccc2ncc(-c3cccs3)n2n1 | 10%
COc1ccc(-c2ccc3ncc(-c4cccc(Cl)c4)n3n2)cc1OC | 20%
CN1CCN(C(=O)c2cccc(-c3ccc4nnc(-c5ccc6nccnc6c5)n4c3)c2)CC1 | 20%
COc1cc(OC)cc(-c2cnc3cnc(-c4cccc(OC(C)C)c4)cn23)c1 | 20%
COc1ccc(-c2cnc3cnc(-c4cccs4)cn23)cc1 | 20%
CN(C)c1cccc(-c2cn3c(NC(=O)c4ccccc4)cnc3cn2)c1 | 50%
CS(=O)(=O)Nc1cccc(-c2cn3c(-c4cccnc4)cnc3cn2)c1 | 20%
Nc1cccc(-c2cnc3ccc(NC4CCOCC4)nn23)c1 | 20%
CC(=O)Nc1cccc(-c2ccc3nnc(-c4ccccc4)n3c2)c1 | 50%

Compound | Activity
Fc1ccc(-c2cnc3cnc(-c4ccco4)cn23)cc1Cl | 20%
Clc1cccc(-c2nnc3ccc(-c4cncnc4)cn23)c1 | 20%
CSc1ccc(-c2cn3c(-c4cccc(CO)c4)cnc3cn2)cc1 | 20%
COCCNc1ccc2ncc(-c3ccc(C(=O)Nc4ccc(OC)cc4)cc3)n2n1 | 20%
Cc1ccc(CNc2ccc3ncc(-c4ccc(C(=O)NCCN(C)C)cc4)n3n2)c(C)c1 | 20%
CN(C)c1ccc(-c2cnc3cnc(-c4cccc(C(=O)NCCO)c4)cn23)cc1 | 20%
COc1cccc(CC(=O)Nc2cnc3cnc(-c4ccc5[nH]ccc5c4)cn23)c1 | 10%
CN(C)CCNC(=O)c1cccc(-c2ccc3nnc(-c4ccc5nccnc5c4)n3c2)c1 | >=100%
COc1ccc(-c2nnc3ccc(-c4cccs4)cn23)cc1OC | 50%
c1ccc(-c2cn3c(-c4ccc5c(c4)OCO5)cnc3cn2)cc1 | 50%
CN(C)CCCNC(=O)c1ccc(-c2cn3c(-c4ccc(N(C)C)cc4)cnc3cn2)cc1 | 50%
c1cc(-c2nnc3ccc(-c4ccc(N5CCOCC5)cc4)cn23)ccn1 | 20%
CC(C(=O)Nc1cnc2cnc(-c3cccc([N+](=O)[O-])c3)cn12)c1ccccc1 (centres undefined) | 20%
Clc1cccc(-c2cn3c(-c4ccc5c(c4)OCO5)cnc3cn2)c1 | 50%
COc1cc(-c2cnc3cnc(-c4ccc(NCCN5CCOCC5)nc4)cn23)ccc1O | 20%
CC(=O)c1cccc(-c2cnc3cnc(-c4cccc(F)c4)cn23)c1 | 20%
COc1ccc(-c2nnc3ccc(-c4ccc(S(C)(=O)=O)cc4)cn23)cc1OC | 10%
CCCC/C=C/c1cn2c(NC(=O)Cc3cccc(OC)c3)cnc2cn1 | 10%
COc1cc(-c2cnc3ccc(NCc4cccc(Cl)c4)nn23)ccc1O | 20%
CNc1ccc2ncc(-c3ccccc3O)n2n1 | 20%
c1ccc(Oc2ccccc2-c2cn3c(-c4ccncc4)cnc3cn2)cc1 | 20%
Cc1ccc(CNc2ccc3ncc(-c4ccc(O)cc4)n3n2)c(C)c1 | 20%

Compound | Activity
c1csc(-c2ccc3nnc(-c4ccoc4)n3c2)c1 | 50%
CSc1ccc(-c2cnc3cccnn23)cc1 | 10%
CN(C)c1ccc(-c2cnc3cnc(-c4cccc(C(N)=O)c4)cn23)cc1 | 20%
COc1cc(-c2cn3c(-c4ccc5ncccc5c4)cnc3cn2)cc(OC)c1OC | 20%
Nc1cccc(-c2cn3c(-c4cccc(F)c4)cnc3cn2)c1 | 20%
COc1ccc(-c2cnc3cnc(-c4ccc(N5CCN(C)CC5)cc4)cn23)cn1 | 20%
CNC(=O)c1cccc(-c2ccc3nnc(-c4ccc5c(c4)OCO5)n3c2)c1 | 20%
O=C(Cc1ccsc1)Nc1cnc2cnc(-c3ccccc3F)cn12 | 10%
CN(C)c1ccc(-c2cnc3cnc(-c4ccc(NCCN5CCOCC5)nc4)cn23)cc1 | 50%
COc1cc(OC)cc(-c2cn3c(-c4cccc(N(C)C)c4)cnc3cn2)c1 | 20%
CN1CCN(C(=O)c2cccc(-c3cnc4cnc(-c5cccc(Cl)c5)cn34)c2)CC1 | 20%
COc1ccc(-c2ccc3ncc(-c4cccc(Cl)c4)n3n2)c(C)c1 | 10%
c1csc(-c2cnc3cnc(-c4cc5ccccc5s4)cn23)c1 | 50%
Fc1cccc(-c2ccc3ncc(-c4ccc5c(c4)OCO5)n3n2)c1 | 20%
COc1ccc(-c2ccc3nnc(-c4cscn4)n3c2)c(C)c1 | 50%
CC(C)N1CCN(c2ccc(-c3cn4c(-c5ccc(C(=O)NC6CC6)cc5)cnc4cn3)cc2)CC1 | 20%
Oc1cccc(-c2ccc3ncc(-c4cccc(C(F)(F)F)c4)n3n2)c1 | 20%
OCc1ccc(-c2cnc3cnc(-c4ccc(Cl)cc4Cl)cn23)cc1 | 20%
CN(C)c1ccc(-c2ccc3nnc(-c4cccnc4)n3c2)cc1 | 50%
COc1ccc(-c2nnc3ccc(C#Cc4ccncc4)cn23)cc1OC | 50%
COc1cc(-c2cnc3cnc(-c4ccc(OCCCN(C)C)nc4)cn23)ccc1O | 20%
COc1ccc(-c2cnc3ccc(NCC4CC4)nn23)cn1 | 10%

Compound | Activity
c1csc(-c2cn3c(-c4cccs4)cnc3cn2)c1 | 50%
CCC(CO)Nc1ccc2ncc(-c3ccccc3Cl)n2n1 (centres undefined) | 10%
Clc1ccc(-c2cnc3cnc(-c4ccncc4)cn23)cc1 | 20%
Fc1ccc(-c2ccc3nnc(-c4cscn4)n3c2)cc1Cl | 20%
COc1cc(OC)cc(-c2cn3c(-c4cccs4)cnc3cn2)c1 | 20%
COc1cncc(-c2ccc3nnc(-c4cccc(OC(F)(F)F)c4)n3c2)c1 | 50%
C(#Cc1ccccn1)c1ccc2nnc(-c3ccccc3)n2c1 | 50%
COc1cc(C#Cc2ccc3nnc(-c4ccc(OCCCN(C)C)cc4)n3c2)cc(OC)c1 | 20%
c1ccc(Oc2cccc(-c3ccc4nnc(-c5ccncc5)n4c3)c2)cc1 | 20%
COc1ccc(-c2cnc3ccc(NCCCO)nn23)c(OC)c1 | 10%
O=C(O)CCc1ccc(-c2cnc3cnc(-c4ccccc4Cl)cn23)cc1 | 50%
OCc1ccc(-c2ccc3nnc(-c4ccncc4)n3c2)cc1 | 20%
O=C(O)CCc1ccc(-c2cnc3cnc(-c4cccs4)cn23)cc1 | 20%
Cn1cc(-c2cn3c(-c4ccc(O)cc4)cnc3cn2)cn1 | 20%
COc1ccc(-c2ccc3nnc(-c4ccncc4)n3c2)cc1OC | 20%
O=C(NCCO)c1ccc(-c2cn3c(-c4cccs4)cnc3cn2)cc1 | 10%
Nc1ccc(-c2cn3c(-c4ccc5c(c4)OCO5)cnc3cn2)cn1 | 10%
OCc1ccc(-c2ccc3ncc(-c4cccnc4)n3n2)cc1 | 20%
COc1ccc(-c2ccc3nnc(-c4ccccc4)n3c2)c(C)c1 | >=100%
O=C(NCCO)c1cccc(-c2cn3c(-c4cccs4)cnc3cn2)c1 | 20%
COc1ccccc1-c1cn2c(NC(=O)c3ccccc3)cnc2cn1 | 20%
CC(C)c1cccc(-c2ccc3nnc(-c4cccnc4)n3c2)c1 | 50%

Compound | Activity
CC(=O)c1ccc(-c2cn3c(-c4ccc(C(=O)NC5CC5)cc4)cnc3cn2)s1 | 20%
OC1CCC(Nc2ccc3ncc(Br)n3n2)CC1 (centres undefined) | 10%
CN1CCN(C(=O)c2cccc(-c3cnc4cnc(-c5ccc(CNc6ccccc6)cc5)cn34)c2)CC1 | 10%
OCc1cccc(-c2ccc3nnc(-c4ccccn4)n3c2)c1 | 20%
CN(C)C(=O)c1cccc(-c2cn3c(-c4ccc(N(C)C)cc4)cnc3cn2)c1 | 20%
FC(F)(F)Oc1cccc(-c2nnc3ccc(-c4cccs4)cn23)c1 | 50%
O=C(Nc1cnc2cnc(-c3ccsc3)cn12)c1cccs1 | 20%
OCc1ccc(-c2cnc3cnc(-c4ccco4)cn23)cc1 | 20%
O=C(NCCO)c1cccc(-c2cn3c(-c4cccc(OC(F)(F)F)c4)cnc3cn2)c1 | 20%
Clc1cccc(-c2nnc3ccc(-c4ccoc4)cn23)c1 | 50%
Cn1cc(-c2cnc3cnc(-c4ccncc4)cn23)cn1 | 20%
Clc1cccc(-c2nnc3ccc(-c4ccncc4)cn23)c1 | 50%
CN1CCN(C(=O)c2cccc(-c3cnc4cnc(-c5ccc6c(c5)OCO6)cn34)c2)CC1 | 20%
CN(C)c1cccc(-c2cnc3cnc(-c4ccsc4)cn23)c1 | 50%
CN(C)c1cccc(-c2ccc3ncc(-c4cccs4)n3n2)c1 | 20%
c1coc(-c2cn3c(-c4ccsc4)cnc3cn2)c1 | 20%
COc1ccc(-c2cn3c(-c4ccc(OC)nc4)cnc3cn2)cn1 | 20%
COc1ccc(-c2cnc3cnc(-c4ccc(CO)cc4)cn23)cc1 | 50%
c1ccc(-c2cnc3cnc(-c4ccsc4)cn23)cc1 | 20%
OCc1cccc(-c2cnc3cnc(-c4ccccc4)cn23)c1 | 20%
COc1ccc(-c2cnc3cnc(-c4cccc(C(N)=O)c4)cn23)cn1 | 20%
